Source: US10588317B2, “Isoxazoline-substituted benzamides and analogues as insecticides” (priority 2015, dated 2020)

Tests used:
Assay type in all cases: in vivo
Spodoptera littoralis = Spodoptera littoralis (Egyptian cotton leaf worm), sprayed cotton leaf discs; settings: foliar, 72 h, application rate 200 ppm, L1 larvae, 3 days after infestation, read-out: control (mortality, anti-feeding effect, growth inhibition)
Method in brief: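 Five first-instar larvae placed on dried cotton leaf discs (on agar) previously sprayed with aqueous dilutions of 10'000 ppm DMSO stocks. Scored at 3 days against untreated discs for mortality, feeding inhibition and growth inhibition; any category above untreated counts as control.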

Diabrotica balteata = Diabrotica balteata (corn root worm), sprayed maize sprouts; settings: 96 h, application rate 200 ppm, L2 larvae, 4 days after infestation, read-out: effect in at least one of the two categories (mortality or growth inhibition)
Method in brief: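 Read-out at 4 days post-infestation: mortality and growth inhibition relative to untreated samples. Test solutions (200 ppm, from DMSO stocks) were sprayed onto agar-held maize sprouts, which after drying received 6–10 L2 larvae per well.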

Thrips tabaci = Thrips tabaci (onion thrips): feeding/contact activity; settings: 144 h, application rate 200 ppm, Thrips population of mixed ages, 6 days after infestation, read-out: mortality
Method: Sunflower leaf discs were placed on agar in 24-well microtiter plates and sprayed with aqueous test solutions prepared from 10'000 ppm DMSO stock solutions. After drying the leaf discs were infested with a Thrips population of mixed ages. The samples were assessed for mortality 6 days after infestation.

Euschistus heros = Euschistus heros (neotropical brown stink bug), sprayed soybean leaves; settings: 120 h, application rate 200 ppm, N2 nymphs, 5 days after infestation, read-out: effect in at least one of the two categories (mortality or growth inhibition)
Method in brief: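 Scored 5 days post-infestation versus untreated controls, for both mortality and growth inhibition: N2 nymphs placed on agar-mounted soybean leaves previously sprayed at 200 ppm with aqueous test solutions from DMSO stocks and left to dry.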

Plutella xylostella = Plutella xylostella (diamond back moth), artificial diet; settings: 120 h, application rate 200 ppm, L2 larvae, 5 days after infestation, read-out: effect in at least one of the two categories (mortality or growth inhibition)
Method in brief: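 L2 larvae (10-15 per well) fed on compound-treated, dried artificial diet; test solutions diluted in water from 10'000 ppm DMSO stocks. Readout 5 days post-infestation as mortality or growth inhibition versus untreated diet, with at least 80% effect at 200 ppm as threshold.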

Myzus persicae = Myzus persicae (green peach aphid): feeding/contact activity; settings: 144 h, application rate 200 ppm, aphid population of mixed ages, 6 days after infestation, read-out: mortality
Method: Sunflower leaf discs were placed onto agar in a 24-well microtiter plate and sprayed with aqueous test solutions prepared from 10'000 ppm DMSO stock solutions. After drying, the leaf discs were infested with an aphid population of mixed ages. The samples were assessed for mortality 6 days after infestation.

Tetranychus urticae = Tetranychus urticae (two-spotted spider mite): feeding/contact activity; settings: 192 h, application rate 200 ppm, mixed population (mobile stages), 8 days after infestation, read-out: mortality
Method: Bean leaf discs on agar in 24-well microtiter plates were sprayed with aqueous test solutions prepared from 10'000 ppm DMSO stock solutions. After drying the leaf discs were infested with a mite population of mixed ages. The samples were assessed for mortality on mixed population (mobile stages) 8 days after infestation.

COCN(C)S(=O)(=O)N1CC(NC(=O)c2ccc(C3=NO[C@@](c4cc(Cl)c(Cl)c(Cl)c4)(C(F)(F)F)C3)cc2C)CO1 (some centres unmarked) [Compound A96]
≥ 80%: mortality at 200 ppm (Spodoptera littoralis) | percent effect (mortality or growth inhibition) at 200 ppm (Diabrotica balteata) | mortality at 200 ppm (Thrips tabaci) | percent effect (mortality or growth inhibition) at 200 ppm (Euschistus heros) | percent effect (mortality or growth inhibition) at 200 ppm (Plutella xylostella) | mortality at 200 ppm (Myzus persicae) | mortality at 200 ppm (Tetranychus urticae)

Cc1cc(C2=NO[C@](c3cc(Cl)cc(C(F)F)c3)(C(F)(F)F)C2)ccc1C(=O)N[C@H]1CON(S(C)(=O)=O)C1 [Compound A185]
≥ 80%: mortality at 200 ppm (Spodoptera littoralis) | percent effect (mortality or growth inhibition) at 200 ppm (Diabrotica balteata) | mortality at 200 ppm (Thrips tabaci) | percent effect (mortality or growth inhibition) at 200 ppm (Euschistus heros) | percent effect (mortality or growth inhibition) at 200 ppm (Plutella xylostella) | mortality at 200 ppm (Myzus persicae) | mortality at 200 ppm (Tetranychus urticae)

O=C(N[C@H]1CON(S(=O)(=O)NC2CC2)C1)c1ccc(C2=NO[C@@](c3cc(Cl)cc(Cl)c3)(C(F)(F)F)C2)cc1Cl [Compound A154]
≥ 80%: mortality at 200 ppm (Spodoptera littoralis) | percent effect (mortality or growth inhibition) at 200 ppm (Diabrotica balteata) | mortality at 200 ppm (Thrips tabaci) | percent effect (mortality or growth inhibition) at 200 ppm (Euschistus heros) | percent effect (mortality or growth inhibition) at 200 ppm (Plutella xylostella) | mortality at 200 ppm (Myzus persicae) | mortality at 200 ppm (Tetranychus urticae)

CCCS(=O)(=O)N1CC(NC(=O)c2ccc(C3=NO[C@@](c4cc(Cl)c(F)c(Cl)c4)(C(F)(F)F)C3)cc2C)CO1 (some centres unmarked) [Compound A3]
≥ 80%: mortality at 200 ppm (Spodoptera littoralis) | percent effect (mortality or growth inhibition) at 200 ppm (Diabrotica balteata) | mortality at 200 ppm (Thrips tabaci) | percent effect (mortality or growth inhibition) at 200 ppm (Euschistus heros) | percent effect (mortality or growth inhibition) at 200 ppm (Plutella xylostella) | mortality at 200 ppm (Myzus persicae) | mortality at 200 ppm (Tetranychus urticae)

Cc1cc(C2=NO[C@](c3cc(Cl)c(F)c(Cl)c3)(C(F)(F)F)C2)ccc1C(=O)N[C@H]1CON(S(=O)(=O)NC(=O)OC(C)(C)C)C1 [Compound A209, tert-butyl N-[[(4R)-4-[[4-[(5R)-5-(3,5-dichloro-4-fluorophenyl)-5-(trifluoromethyl)-4H-1,2-oxazol-3-yl]-2-methylbenzoyl]amino]-1,2-oxazolidin-2-yl]sulfonyl]carbamate]
≥ 80%: mortality at 200 ppm (Spodoptera littoralis) | percent effect (mortality or growth inhibition) at 200 ppm (Diabrotica balteata) | mortality at 200 ppm (Thrips tabaci) | percent effect (mortality or growth inhibition) at 200 ppm (Euschistus heros) | percent effect (mortality or growth inhibition) at 200 ppm (Plutella xylostella) | mortality at 200 ppm (Myzus persicae) | mortality at 200 ppm (Tetranychus urticae)

Cc1cc(C2=NO[C@@](c3cc(Cl)cc(Cl)c3)(C(F)(F)F)C2)ccc1C(=O)N[C@@H]1CON(S(N)(=O)=O)C1 [Compound A178, 4-[(5S)-5-(3,5-dichlorophenyl)-5-(trifluoromethyl)-4H-1,2-oxazol-3-yl]-2-methyl-N-[(4S)-2-sulfamoyl-1,2-oxazolidin-4-yl]benzamide]
≥ 80%: mortality at 200 ppm (Spodoptera littoralis) | percent effect (mortality or growth inhibition) at 200 ppm (Diabrotica balteata) | mortality at 200 ppm (Thrips tabaci) | percent effect (mortality or growth inhibition) at 200 ppm (Euschistus heros) | percent effect (mortality or growth inhibition) at 200 ppm (Plutella xylostella) | mortality at 200 ppm (Myzus persicae) | mortality at 200 ppm (Tetranychus urticae)

CS(=O)(=O)N1CC(NC(=O)c2ccc(C3=NO[C@@](c4cc(Cl)c(Cl)c(Cl)c4)(C(F)(F)F)C3)cc2Cl)CO1 (stereo partly drawn) [Compound A15, 2-chloro-N-(2-methylsulfonylisoxazolidin-4-yl)-4-[(5S)-5-(3,4,5-trichlorophenyl)-5-(trifluoromethyl)-4H-isoxazol-3-yl]benzamide]
≥ 80%: mortality at 200 ppm (Spodoptera littoralis) | percent effect (mortality or growth inhibition) at 200 ppm (Diabrotica balteata) | mortality at 200 ppm (Thrips tabaci) | percent effect (mortality or growth inhibition) at 200 ppm (Euschistus heros) | percent effect (mortality or growth inhibition) at 200 ppm (Plutella xylostella) | mortality at 200 ppm (Myzus persicae) | mortality at 200 ppm (Tetranychus urticae)

Cc1cc(C2=NOC(c3cc(Cl)c(C#N)c(Cl)c3)(C(F)(F)F)C2)ccc1C(=O)NC1CON(S(C)(=O)=O)C1 (centres unmarked) [Compound A50]
≥ 80%: mortality at 200 ppm (Spodoptera littoralis) | percent effect (mortality or growth inhibition) at 200 ppm (Diabrotica balteata) | mortality at 200 ppm (Thrips tabaci) | percent effect (mortality or growth inhibition) at 200 ppm (Euschistus heros) | percent effect (mortality or growth inhibition) at 200 ppm (Plutella xylostella) | mortality at 200 ppm (Myzus persicae) | mortality at 200 ppm (Tetranychus urticae)

Cc1cc(C2=NO[C@@](c3cc(Cl)c(F)c(Cl)c3)(C(F)(F)F)C2)ccc1C(=O)N[C@H]1CON(S(=O)(=O)CBr)C1 [Compound A189, N-[(4R)-2-(bromomethylsulfonyl)-1,2-oxazolidin-4-yl]-4-[(5S)-5-(3,5-dichloro-4-fluorophenyl)-5-(trifluoromethyl)-4H-1,2-oxazol-3-yl]-2-methylbenzamide]
≥ 80%: mortality at 200 ppm (Spodoptera littoralis) | percent effect (mortality or growth inhibition) at 200 ppm (Diabrotica balteata) | mortality at 200 ppm (Thrips tabaci) | percent effect (mortality or growth inhibition) at 200 ppm (Euschistus heros) | percent effect (mortality or growth inhibition) at 200 ppm (Plutella xylostella) | mortality at 200 ppm (Myzus persicae) | mortality at 200 ppm (Tetranychus urticae)

Cc1cc(C2=NO[C@@](c3cc(Cl)cc(Cl)c3)(C(F)(F)F)C2)ccc1C(=O)N[C@@H]1CON(S(=O)(=O)C2CC2)C1 [Compound A230]
≥ 80%: mortality at 200 ppm (Spodoptera littoralis) | percent effect (mortality or growth inhibition) at 200 ppm (Diabrotica balteata) | mortality at 200 ppm (Thrips tabaci) | percent effect (mortality or growth inhibition) at 200 ppm (Euschistus heros) | percent effect (mortality or growth inhibition) at 200 ppm (Plutella xylostella) | mortality at 200 ppm (Myzus persicae) | mortality at 200 ppm (Tetranychus urticae)

Cc1cc(C2=NO[C@](c3cc(Cl)c(F)c(Cl)c3)(C(F)(F)F)C2)ccc1C(=O)N[C@H]1CON(S(=O)(=O)NC2(C#N)CC2)C1 [Compound A168]
≥ 80%: mortality at 200 ppm (Spodoptera littoralis) | percent effect (mortality or growth inhibition) at 200 ppm (Diabrotica balteata) | mortality at 200 ppm (Thrips tabaci) | percent effect (mortality or growth inhibition) at 200 ppm (Euschistus heros) | percent effect (mortality or growth inhibition) at 200 ppm (Plutella xylostella) | mortality at 200 ppm (Myzus persicae) | mortality at 200 ppm (Tetranychus urticae)

Cc1cc(C2=NO[C@@](c3cc(Cl)c(F)c(Cl)c3)(C(F)(F)F)C2)ccc1C(=O)N[C@@H]1CON(S(N)(=O)=O)C1 [Compound A208, 4-[(5S)-5-(3,5-dichloro-4-fluorophenyl)-5-(trifluoromethyl)-4H-1,2-oxazol-3-yl]-2-methyl-N-[(4S)-2-sulfamoyl-1,2-oxazolidin-4-yl]benzamide]
≥ 80%: mortality at 200 ppm (Spodoptera littoralis) | percent effect (mortality or growth inhibition) at 200 ppm (Diabrotica balteata) | mortality at 200 ppm (Thrips tabaci) | percent effect (mortality or growth inhibition) at 200 ppm (Plutella xylostella) | mortality at 200 ppm (Myzus persicae) | mortality at 200 ppm (Tetranychus urticae)

Cc1cc(C2=NO[C@@](c3cc(Cl)c(Cl)c(Cl)c3)(C(F)(F)F)C2)ccc1C(=O)NC1CON(S(=O)(=O)C2CC2)C1 (stereo partly drawn) [Compound A29, N-(2-cyclopropylsulfonylisoxazolidin-4-yl)-2-methyl-4-[(5S)-5-(3,4,5-trichlorophenyl)-5-(trifluoromethyl)-4H-isoxazol-3-yl]benzamide]
≥ 80%: mortality at 200 ppm (Spodoptera littoralis) | percent effect (mortality or growth inhibition) at 200 ppm (Diabrotica balteata) | mortality at 200 ppm (Thrips tabaci) | percent effect (mortality or growth inhibition) at 200 ppm (Plutella xylostella) | mortality at 200 ppm (Myzus persicae) | mortality at 200 ppm (Tetranychus urticae)
